{"source": "patent US6900233B2", "about": "“Substituted 3-phenyl-5-alkoxy-3H-(1,3,4)-oxadiazol-2-ones, pharmaceutical composition and method for treating obesity thereof” (Aventis Pharma Deutschland GmbH, priority 2002, dated 2005)", "note": "pIC50: −log10 of the molar value.", "data": [{"tested_on": "not given", "experiment": "not given", "details": "not given", "units": {"melting point": "°C"}, "values": [{"smiles": "CC(C)CCC[C@@H](C)[C@H]1CC[C@H]2[C@@H]3CCC4C[C@@H](Oc5nn(-c6ccc(OC(F)(F)F)cc6)c(=O)o5)CC[C@]4(C)[C@H]3CC[C@]12C", "note": "(some centres unmarked)", "melting point": 127}, {"smiles": "CCCCCCCCCCCCCCCCOc1nn(-c2ccc(OC(F)(F)F)cc2)c(=O)o1", "note": "[Example 2, 5-Hexadecyloxy-3-(4-trifluoromethoxy-phenyl)-3H-(1,3,4)-oxadiazol-2-one]", "melting point": 56}, {"smiles": "CCCCCCCCCCCCCCCCOc1nn(-c2cccc(OC(F)(F)F)c2)c(=O)o1", "note": "[Example 4, 5-Hexadecyloxy-3-(3-trifluoromethoxy-phenyl)-3H-(1,3,4)-oxadiazol-2-one]", "melting point": 53}, {"smiles": "CCCCCCCCCCCCCCCCOc1nn(-c2ccc(Oc3ccc(Cl)cc3)cc2)c(=O)o1", "note": "[Example 5, 5-Hexadecyloxy-3-(4-(4-chlorophenoxy)-phenyl)-3H-(1,3,4)-oxadiazol-2-one]", "melting point": 52}, {"smiles": "CCCCCCCCOc1nn(-c2ccccc2)c(=O)o1", "note": "[Example 6, 5-Octyloxy-3-phenyl-3H-(1,3,4)-oxadiazol-2-one]", "melting point": 38}, {"smiles": "CCCCCCCCCCCCCCCCOc1nn(-c2cccc(F)c2)c(=O)o1", "note": "[Example 8, 5-Hexadecyloxy-3-(3-fluoro-phenyl)-3H-(1,3,4)-oxadiazol-2-one]", "melting point": 58}, {"smiles": "CCCCCCCCCCCCCCCCOc1nn(-c2cccc(OCc3ccccc3)c2)c(=O)o1", "note": "[Example 9, 5-Hexadecyloxy-3-(3-benzyloxy-phenyl)-3H-(1,3,4)-oxadiazol-2-one]", "melting point": 65}, {"smiles": "CCCCCCCCCCCCCCCCOc1nn(-c2ccccc2)c(=O)o1", "note": "[Example 10, 5-Hexadecyloxy-3-phenyl-3H-(1,3,4)-oxadiazol-2-one]", "melting point": 63}, {"smiles": "CCCCCCCCCCCCCCCCOc1nn(-c2ccc([N+](=O)[O-])cc2)c(=O)o1", "note": "[Example 11, 5-Hexadecyloxy-3-(4-nitro-phenyl)-3H-(1,3,4)-oxadiazol-2-one]", "melting point": 72}, {"smiles": "CCCCCCCCCCCCCCCCOc1nn(-c2ccc(OC)cc2)c(=O)o1", "note": "[Example 12, 5-Hexadecyloxy-3-(4-methoxy-phenyl)-3H-(1,3,4)-oxadiazol-2-one]", "melting point": 66}, {"smiles": "CCCCCCCCCCCCCCCCOc1nn(-c2ccc(OCc3ccccc3)cc2)c(=O)o1", "note": "[Example 13, 5-Hexadecyloxy-3-(4-benzyloxy-phenyl)-3H-(1,3,4)-oxadiazol-2-one]", "melting point": 73}, {"smiles": "CCCCCCCCCCCOc1nn(-c2ccc(OC(F)(F)F)cc2)c(=O)o1", "note": "[Example 15, 5-Undecyloxy-3-(4-trifluoromethoxy-phenyl)-3H-(1,3,4)-oxadiazol-2-one]", "melting point": 38}, {"smiles": "CCCCCCCCCCCCCCOc1nn(-c2ccc(OC(F)(F)F)cc2)c(=O)o1", "note": "[Example 16, 5-Tetradecyloxy-3-(4-trifluoromethoxy-phenyl)-3H-(1,3,4)-oxadiazol-2-one]", "melting point": 46}, {"smiles": "CCCCCCCCCCCCCOc1nn(-c2ccc(OC(F)(F)F)cc2)c(=O)o1", "note": "[Example 17, 5-Tridecyloxy-3-(4-trifluoromethoxy-phenyl)-3H-(1,3,4)-oxadiazol-2-one]", "melting point": 50}, {"smiles": "O=c1oc(OCCc2ccc(F)cc2)nn1-c1ccc(OC(F)(F)F)cc1", "note": "[Example 21, 5-(2-(4-Fluorophenyl)-ethoxy)-3-(4-trifluoromethoxy-phenyl)-3H-(1,3,4)-oxadiazol-2-one]", "melting point": 60}, {"smiles": "CCCCCCCCCCCCCCCCCCCCCCOCCOc1nn(-c2ccc(OC(F)(F)F)cc2)c(=O)o1", "note": "[Example 25, 5-(Docosyloxy-ethoxy)-3-(4-trifluoromethoxy-phenyl)-3H-(1,3,4)-oxadiazol-2-one]", "melting point": 71}, {"smiles": "CCCCCCCCCCCCOc1nn(-c2ccc(OC(F)(F)F)cc2)c(=O)o1", "note": "[Example 29, 5-(Dodecyloxy)-3-(4-trifluoromethoxy-phenyl)-3H-(1,3,4)-oxadiazol-2-one]", "melting point": 41}, {"smiles": "CCCCCCCCCCCCOc1nn(-c2ccc(Cl)c(Cl)c2)c(=O)o1", "note": "[Example 30, 5-(Dodecyloxy)-3-(3,4-dichloro-phenyl)-3H-(1,3,4)-oxadiazol-2-one]", "melting point": 74}, {"smiles": "CCCCCCCCCCCCOc1nn(-c2cc(Cl)cc(Cl)c2)c(=O)o1", "note": "[Example 31, 5-(Dodecyloxy)-3-(3,5-dichloro-phenyl)-3H-(1,3,4)-oxadiazol-2-one]", "melting point": 48}, {"smiles": "CCCCCCCCCCCCOc1nn(-c2cccc(OC)c2)c(=O)o1", "note": "[Example 32, 5-(Dodecyloxy)-3-(3-methoxy-phenyl)-3H-(1,3,4)-oxadiazol-2-one]", "melting point": 51}, {"smiles": "CCCCCCCCCCCCOc1nn(-c2ccc(OC)cc2)c(=O)o1", "note": "[Example 33, 5-(Dodecyloxy)-3-(4-methoxy-phenyl)-3H-(1,3,4)-oxadiazol-2-one]", "melting point": 57}, {"smiles": "CCCCCCCCCCCCOc1nn(-c2cccc([N+](=O)[O-])c2)c(=O)o1", "note": "[Example 34, 5-(Dodecyloxy)-3-(3-nitro-phenyl)-3H-(1,3,4)-oxadiazol-2-one]", "melting point": 64}, {"smiles": "CCCCCCCCCCCCOc1nn(-c2cccc(C(F)(F)F)c2)c(=O)o1", "note": "[Example 35, 5-(Dodecyloxy)-3-(3-trifluoromethyl-phenyl)-3H-(1,3,4)-oxadiazol-2-one]", "melting point": 43}, {"smiles": "CCCCCCCCCCCCOc1nn(-c2ccc(OCc3ccccc3)cc2)c(=O)o1", "note": "[Example 37, 5-(Dodecyloxy)-3-(4-benzyloxy-phenyl)-3H-(1,3,4)-oxadiazol-2-one]", "melting point": 65}, {"smiles": "CCCCCCCCCCCCOc1nn(-c2cccc(F)c2)c(=O)o1", "note": "[Example 38, 5-(Dodecyloxy)-3-(3-fluoro-phenyl)-3H-(1,3,4)-oxadiazol-2-one]", "melting point": 44}, {"smiles": "CCCCCCCCCCCCOc1nn(-c2ccc([N+](=O)[O-])c(OCc3ccc(F)cc3)c2)c(=O)o1", "note": "[Example 39, 5-(Dodecyloxy)-3-(3-(4-fluorobenzyloxy)-4-nitro-phenyl)-3H-(1,3,4)-oxadiazol-2-one]", "melting point": 71}, {"smiles": "CCCCCCCCCCCCOc1nn(-c2ccc([N+](=O)[O-])cc2C)c(=O)o1", "note": "[Example 40, 5-(Dodecyloxy)-3-(2-methyl-4-nitro-phenyl)-3H-(1,3,4)-oxadiazol-2-one]", "melting point": 63}, {"smiles": "CCCCCCCCCCCCOc1nn(-c2ccc([N+](=O)[O-])c(C)c2)c(=O)o1", "note": "[Example 41, 5-(Dodecyloxy)-3-(3-methyl-4-nitro-phenyl)-3H-(1,3,4)-oxadiazol-2-one]", "melting point": 62}]}, {"target": "T1, pancreatic lipase (PL) (Sus scrofa, UniProt P00591)", "T1 construct": "Enriched preparation from porcine pancreas; purchased Sigma L-0382; host or cells: porcine pancreas (tissue preparation)", "T1 sequence (P00591 1-450)": "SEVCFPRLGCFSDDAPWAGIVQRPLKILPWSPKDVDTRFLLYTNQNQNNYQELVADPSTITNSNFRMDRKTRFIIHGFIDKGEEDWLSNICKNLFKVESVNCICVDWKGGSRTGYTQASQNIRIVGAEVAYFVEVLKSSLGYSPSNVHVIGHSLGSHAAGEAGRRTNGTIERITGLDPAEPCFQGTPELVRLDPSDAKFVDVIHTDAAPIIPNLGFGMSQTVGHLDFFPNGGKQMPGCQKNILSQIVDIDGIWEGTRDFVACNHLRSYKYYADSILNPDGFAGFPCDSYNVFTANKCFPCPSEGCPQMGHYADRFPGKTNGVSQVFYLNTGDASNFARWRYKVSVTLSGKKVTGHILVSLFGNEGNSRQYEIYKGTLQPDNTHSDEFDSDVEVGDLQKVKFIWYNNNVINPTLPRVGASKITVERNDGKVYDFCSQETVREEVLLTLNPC", "experiment": "Pancreatic lipase enzyme assay (release of radiolabeled oleate from tripalmitin/glycerol tri[3H]oleate substrate)", "type": "biochemical", "details": "enriched preparation from porcine pancreas, 30° C., 30 min, up to 8 concentrations", "experimental": "The effect of the compounds according to the invention of formula 1 was tested using the following enzyme assay system: [lacuna]\nThe activity of the compounds was assayed as follows:\n1. Preparation of the Substrate:\n80 μL of tripalmitin (85 mM in chloroform) are mixed with 5 μL of glycerol tri[9,10(n)-^3H]oleate (5 mCi/mL in toluene) in a 12 mL polypropylene vessel. Evaporation in a rotary evaporator (50° C.) and addition of 4 mL of 200 mM Tris/HCl (pH 7.6), 0.8% TX-100 are followed by ultrasound treatment of the mixture (Branson B-12 sonifier, output level 4, 3×2 min with 1 min intervals on ice) until a homogeneous milky suspension is produced.\nLipase buffer: 80 mM Tris/HCl (pH 7.6), 600 mM NaCl, 8 mM CaCl2, 8 mM benzamidine, 2 mM Pefabloc (Roche Biochemicals) (add the inhibitors only on the day of the assay)\nPancreatic lipase: Enriched preparation from porcine pancreas (Sigma order No. L-0382) dissolved in lipase buffer (100 000 units/500 μL)\n5 μL of test substance (in 100% DMSO) or DMSO (control) are mixed with 10 μL of substrate and 5 μL of lipase (in this sequence) and incubated at 30° C. (Eppendorf Thermomixer, 350 min^−1) for 30 min. After addition of 325 μL of methanol/chloroform/n-heptane (10/9/7) and 105 μl of 0.1 M K2CO3, 0.1 M H3BO3 (pH 10.5 adjusted with 1 M KOH) and vigorous mixing, the phases are separated by centrifugation (8000 rpm, Eppendorf centrifuge, 4° C.). 140 μL portions of the aqueous supernatant (contains the liberated radiolabeled oleate; 70% recovery) are transferred into 20 mL scintillation vials and mixed with 6 mL of scintillation cocktail (Beckman ReadySafe). After vigorously mixing and incubating at room temperature for 2 h, the radioactivity is measured in a liquid scintillation counter (Beckman, L8008, tritium channel with quench curve, measurement time 20 min).\nSubstances are routinely tested in each concentration in three independent incubation mixtures each with duplicate determination after phase separation (SD<0.02). Background values (reaction under the same conditions but without lipase) are subtracted from all values (corresponds predominantly to the content of glycerol trioleate or free oleate in the substrate preparation in the aqueous phase, <5% of the radioactivity employed). The inhibition of the pancreatic lipase enzymatic activity by a test substance is determined by comparison with an uninhibited control reaction (presence of lipase=0% inhibition; absence of lipase 100% inhibition in each case after background correction). The IC50 is calculated from an inhibition plot with up to 8 concentrations of the test substance. The software package GRAPHIT (Elsevier-BIOSOFT) is used for curve fitting and IC50 determination.", "values": [{"smiles": "CCCCCCCCCCCCOc1nn(-c2ccc(OC(F)(F)F)cc2)c(=O)o1", "note": "[Example 1, 5-Dodecyloxy-3-(4-trifluoromethoxy-phenyl)-3H-(1,3,4)-oxadiazol-2-one]", "pIC50": 7.52}, {"smiles": "CCCCCCCCCCCCCCCCOc1nn(-c2ccc(OC(F)(F)F)cc2)c(=O)o1", "note": "[Example 2, 5-Hexadecyloxy-3-(4-trifluoromethoxy-phenyl)-3H-(1,3,4)-oxadiazol-2-one]", "pIC50": 6.60}, {"smiles": "CCCCCCCCOc1nn(-c2ccc(OC(F)(F)F)cc2)c(=O)o1", "note": "[Example 3, 5-Octyloxy-3-(4-trifluoromethoxy-phenyl)-3H-(1,3,4)-oxadiazol-2-one]", "pIC50": 6.46}, {"smiles": "CCCCCCCCCCCCCCCCOc1nn(-c2cccc(OC(F)(F)F)c2)c(=O)o1", "note": "[Example 4, 5-Hexadecyloxy-3-(3-trifluoromethoxy-phenyl)-3H-(1,3,4)-oxadiazol-2-one]", "pIC50": 5.60}, {"smiles": "CCCCCCCCCCCCCCCCOc1nn(-c2ccc(Oc3ccc(Cl)cc3)cc2)c(=O)o1", "note": "[Example 5, 5-Hexadecyloxy-3-(4-(4-chlorophenoxy)-phenyl)-3H-(1,3,4)-oxadiazol-2-one]", "pIC50": 5.70}, {"smiles": "CCCCCCCCOc1nn(-c2ccccc2)c(=O)o1", "note": "[Example 6, 5-Octyloxy-3-phenyl-3H-(1,3,4)-oxadiazol-2-one]", "pIC50": 6.05}, {"smiles": "CCCCCCCCCCCOc1nn(-c2ccc(OC(F)(F)F)cc2)c(=O)o1", "note": "[Example 15, 5-Undecyloxy-3-(4-trifluoromethoxy-phenyl)-3H-(1,3,4)-oxadiazol-2-one]", "pIC50": 6.22}]}]}
